Test results: paper PMC5228037, “Discovery and Mechanistic Characterization of Selective Inhibitors of H2S-producing Enzyme: 3-Mercaptopyruvate Sulfurtransferase (3MST) Targeting Active-site Cysteine Persulfide” (Scientific Reports, 2017)

Columns and labels:
[1] = Reactivity test toward H2S (3rd screening, cysteine-activated H2S donor); conditions: 40 μM H2S donor, 1 mM L-cysteine, 37 °C 60 min, mean±S.D. n = 4
Experimental: Reactivity of the hit compounds toward H2S was next examined. The final concentration of the compounds was 10 or 30 μM. The assay protocol was as follows. Compounds were diluted with HSip-1 and cysteine-activated H2S donor[22] solution to 20 or 60 μM solution (15.4% DMSO) with a Multi-Drop and a pipette. Next, 2 mM L-cysteine solution (10 μL, final concentration: 1 mM L-cysteine) was dispensed into the plates (total volume was 20 μL, DMSO 7.7%), and the plates were incubated at 37 °C for 1 hr. The fluorescence of HSip-1 was measured (λex = 490 nm, λem = 510 nm) with a microplate reader. Background control wells (i.e., no addition wells instead of addition of the cysteine-activated H2S donor, n = 16) were also prepared for all plates.
Supplementary Table S2. Inhibition (%) of fluorescence increase caused by H2S in the 3rd […]
Compound 10 µM Compound 30 µM Compound 10 µM Compound 30 µM
All data are presented as the mean±S.D. (n = 4). Conditions: Mixtures of 1 μM HSip-1, 10 or 30 μM test compound, 40 μM H2S donor, 1 mM ʟ-cysteine, and 7.7% DMSO (v/v) were incubated at 37 °C for 60 min. The control with DMSO alone instead of DMSO solution of test compound was taken as 0% inhibition, and the sample without H2S donor was taken as 100% inhibition. […]
directly react with H2S: For this assay, we synthesized a reported small-molecular H2S donorS2 that produces H2S by reacting with cysteine. Each compound (10 or 30 μM) was dissolved in a solution (30 mM HEPES buffer (pH 7.4)) containing 1 μM HSip-1, 40 μM H2S donor, 1 mM ʟ-cysteine and 7.7% (v/v) DMSO as a cosolvent, and the solution was incubated at 37 °C for 60 min. Then, the fluorescence intensities were measured to evaluate the amount of H2S in the solution […]

[2] = molecular target: T1, 3MST in cell lysate of 3MST-overexpressing HEK293 cells (Mus musculus, UniProt Q99J99); assay: Inhibitory activity in lysate of m3MST-overexpressing HEK293 cells by gas chromatography; type: biochemical; conditions: 10 μM compound, 100 μM 3MP, 100 μM DTT, 37 °C 15 min
T1 construct: expressed in transfected cells; host or cells: HEK293 (transient, 3MST/pCI)
T1 sequence (Q99J99 1-297): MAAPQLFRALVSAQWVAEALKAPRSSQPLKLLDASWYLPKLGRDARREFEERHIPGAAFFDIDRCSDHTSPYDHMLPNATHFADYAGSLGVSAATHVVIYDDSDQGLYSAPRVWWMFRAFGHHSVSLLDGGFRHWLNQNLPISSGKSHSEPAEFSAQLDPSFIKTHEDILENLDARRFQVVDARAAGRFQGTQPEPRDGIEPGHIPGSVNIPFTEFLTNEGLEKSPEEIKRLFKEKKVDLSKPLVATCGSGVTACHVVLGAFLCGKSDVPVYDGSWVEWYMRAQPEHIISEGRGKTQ
Experimental: Figure 2 Selectivity assessment of hit compounds for 3MST over other H2S/polysulfides-producing enzymes and rhodanese. (a) 3MST-Inhibitory activity of hit compounds at 10 and 100 μM in cell lysate of 3MST-expressing HEK293 cells. 100 μM 3MP and 100 μM DTT were added to the solution containing 0.1% DMSO as a cosolvent, and the mixture was incubated at 37 °C for 15 min. H2S production was measured by gas chromatography. All data are presented as the mean ± S.D. (100 μM: n = 3 or 4; 10 μM: n = 3). (b) Selectivity assessment of hit compounds at 100 μM towards CBS and CSE. Only DMSO was added to the control sample instead of DMSO solution containing hit compounds. H2S production was monitored by gas chromatography. All data are presented as the mean (n = 3). (c) Detection method for rhodanese activity (Sörbo method). (d) Selectivity assessment of hit compounds towards rhodanese. The results are mean ± S.D. (n = 4, three times). These values were determined based upon the absorbance of [Fe(SCN)3] at 460 nm (Sӧrbo method). […] (e) Fluorescence confocal microscopic images of live COS7 cells transfected with 3MST or an empty vector[9] as a control. […] F/F0 was calculated by dividing the fluorescence intensity of cells after addition of 500 μM 3MP (10 min) by that of cells before addition of 500 μM 3MP (Pre), then the mean F/F0 was determined from 5 cells. […]

Compound: NC(=O)c1ccsc1NC(=O)CSc1nc2ccccc2c(=O)[nH]1 [compound 1]
- Inhibition (%) of fluorescence increase caused by H2S in the 3rd screening ([1]; 10 μM compound): 0.2±3.5%
- Inhibition (%) of fluorescence increase caused by H2S in the 3rd screening ([1]; 30 μM compound): 1.0±2.4%
- inhibition at 10 µM [2]: 80 to 90%

Compound: Cc1sc2nc(SCC(=O)c3ccc(O)cc3O)[nH]c(=O)c2c1C [compound 2]
- Inhibition (%) of fluorescence increase caused by H2S in the 3rd screening ([1]; 10 μM compound): 6.5±1.8%
- Inhibition (%) of fluorescence increase caused by H2S in the 3rd screening ([1]; 30 μM compound): 19.6±15.3%

Compound: Cc1cc(=O)[nH]c(SCC(=O)c2cccc3ccccc23)n1 [compound 3]
- Inhibition (%) of fluorescence increase caused by H2S in the 3rd screening ([1]; 10 μM compound): -3.2±5.0%
- Inhibition (%) of fluorescence increase caused by H2S in the 3rd screening ([1]; 30 μM compound): -3.5±3.9%
- inhibition at 10 µM [2]: 80 to 90%

Compound: O=C(O)c1cccc(NS(=O)(=O)c2ccccc2)c1 [compound 5]
- Inhibition (%) of fluorescence increase caused by H2S in the 3rd screening ([1]; 10 μM compound): 2.5±4.5%
- Inhibition (%) of fluorescence increase caused by H2S in the 3rd screening ([1]; 30 μM compound): -1.2±16.3%
